Data set [1] concerns Staphylococcus aureus subsp. aureus CCM 4223 (ATCC 29213). In words: Antibacterial microdilution broth (EUCAST), SA. It is filed as cell-based. Conditions: read after 24 h; read-out: SA MIC. (In general: Broth dilution looks for growth in wells or tubes with falling amounts of substance.)
The subject of data set [2] is Acinetobacter baumannii DSM 30007 (ATCC 19606). In words: Antibacterial microdilution broth (EUCAST), ACI. Format: cell-based. Conditions: read after 24 h; read-out: ACI MIC.
For data set [3], the system named is Aspergillus flavus CCM 8363. Put plainly: Antifungal microdilution broth (EUCAST), AFla. It is filed as cell-based. As to conditions: read after 24 h; read-out: AFla MIC.
Data set [4] relates to Staphylococcus aureus subsp. aureus methicillin-resistant (MRSA) CCM 4750 (ATCC 43300). Put plainly: Antibacterial microdilution broth (EUCAST), MRSA. Format: cell-based. As to conditions: read after 24 h; read-out: MRSA MIC.
The test system of data set [5] is Trichophyton interdigitale CCM 8377 (ATCC 9533). In words: Antifungal microdilution broth (EUCAST), TI. It is filed as cell-based. Conditions: read after 72 h.
Data set [6] has as its system M. aurum DSM 43999 (ATCC 23366). Put plainly: Microplate Alamar Blue Assay (MABA), M. aurum. It is filed as cell-based. As to conditions: MABA, resazurin after 72 h. In general terms: The colour change of resazurin is a common sign of viable cells or microbes.
Data set [7] has as its system Candida krusei CCM 8271 (ATCC 6258). Put plainly: Antifungal microdilution broth (EUCAST), CK. It is filed as cell-based. As to conditions: read after 24 h; read-out: CK MIC.
Data set [8] concerns Klebsiella pneumoniae CCM 4415 (ATCC 10031). Conditions: 24 h.
In data set [9] the test system is Candida tropicalis CCM 8264 (ATCC 750). Put plainly: Antifungal microdilution broth (EUCAST), CT. It is filed as cell-based. Conditions: read after 24 h; read-out: CT MIC.
For data set [10], the system named is Enterococcus faecalis CCM 4224 (ATCC 29212). In words: Antibacterial microdilution broth (EUCAST), EF. It is filed as cell-based. As to conditions: read after 24 h; read-out: EF MIC.
The test system of data set [11] is Candida albicans CCM 8320 (ATCC 24433). Put plainly: Antifungal microdilution broth (EUCAST), CA. It is filed as cell-based. Conditions: read after 24 h; read-out: CA MIC.
Data set [12] concerns Candida parapsilosis CCM 8260 (ATCC 22019). In words: Antifungal microdilution broth (EUCAST), CP. It is filed as cell-based. Conditions: read after 24 h; read-out: CP MIC.
Data set [13] has as its system Mycobacterium smegmatis DSM 43465 (ATCC 607). In words: Microplate Alamar Blue Assay (MABA), M. smegmatis. Conditions: MABA, resazurin after 48 h. Format: cell-based.
The test system of data set [14] is Mycobacterium tuberculosis H37Ra ITM-M006710 (ATCC 9431). Put plainly: Microplate Alamar Blue Assay (MABA), Mtb H37Ra. As to conditions: MABA, Middlebrook 7H9 broth pH 6.6, resazurin after 120 h. Format: cell-based.
The subject of data set [15] is Lichtheimia corymbifera CCM 8077. Put plainly: Antifungal microdilution broth (EUCAST), LC. It is filed as cell-based. As to conditions: read after 24 h; read-out: LC MIC.
Data set [16] relates to Escherichia coli CCM 3954 (ATCC 25922). In words: Antibacterial microdilution broth (EUCAST), EC. Format: cell-based. As to conditions: read after 24 h; read-out: EC MIC.
For data set [17], the system named is Pseudomonas aeruginosa CCM 3955 (ATCC 27853). In words: Antibacterial microdilution broth (EUCAST), PA. It is filed as cell-based. Conditions: read after 24 h.
Data set [18] has as its system Aspergillus fumigatus ATCC 204305. Put plainly: Antifungal microdilution broth (EUCAST), AF. It is filed as cell-based. Conditions: read after 24 h; read-out: AF MIC.

The record followed here is publication PMC9687610, “Adenosine-Mimicking Derivatives of 3-Aminopyrazine-2-Carboxamide: Towards Inhibitors of Prolyl-tRNA Synthetase with Antimycobacterial Activity” (Biomolecules, 2022).

Regarding `COC(=O)c1nccnc1NC(=O)c1ccccc1` [Compound 1e], the MIC in data set [1], in data set [2], in [3], in [4], in data set [7] and in [9] was more than 500 µM throughout. Moreover, the MIC in data set [10], in [11], in [12], in data set [15], in [16] and in data set [18] was more than 500 µM in each case. Also, the “TI MIC” value in [5] is more than 500 µM. Also, the “M. aurum MIC” value in data set [6] was determined as 250 µg/mL. Moreover, in [8], the “KP MIC” value is on record as more than 500 µM. Further, in [13], the “M. smegmatis MIC” value is on record as 125 µg/mL. Besides, in data set [14], the “Mtb H37Ra MIC” value is not below 500 µg/mL. For the same molecule, the “PA MIC” value in data set [17] was more than 500 µM.
